Here are results for two molecules from article PMC5400251, “Effect of quinoline based 1,2,3-triazole and its structural analogues on growth and virulence attributes of Candida albicans” (PLoS ONE, 2017).

Structures are written as SMILES. Where two headings read alike, the source gives them in different places.

In one assay the test system is proteinase secretion. Briefly: Proteinase assay (BSA agar, Pz value). To be noted: at MIC, 1 h exposure. It counts as cell-based, C. albicans ATCC 90028. The method, then:
Following incubation, 1.5 mL of the yeast culture was taken into micro centrifuge tubes and centrifuged at 3000 rpm, for 5 min. The pellet obtained was washed by phosphate buffer saline (PBS) twice to remove the residual medium. […] Volumes of 1μL were placed at equidistant points on proteinase agar medium (0.1% yeast nitrogen base w/o amino acids; 0.145% ammonium sulfate; 2% glucose with 0.2% (w/v) BSA fraction V mixed into agar at ∼40°C) and incubated at 37°C for 3 days. The experiment was performed in duplicate. Secreted proteinase enzyme will degrade BSA and form zone of clearance around the yeast colonies. An index (Pz value) was used to represent the extent of proteinase activity by different strains of C. albicans. A Pz value of 1.0 depicts no enzyme activity. It was calculated as follows: Pzvalue=diameterofcolony/diameterofcolony+diameterofzoneofdegradation

Assay [1] has as its system C. albicans ATCC 90028, C. albicans D27 (FLC-susceptible) and C. albicans D15.9 (FLC-resistant). Briefly: Time kill curve study, three strains. It counts as cell-based. To be noted: for Fungicidal or fungistatic nature: time kill curves, at 2MIC. How it is done: Time-kill curves were used for testing the fungicidal or fungistatic nature of the lead inhibitors 3a and 3b. The experimental procedure was performed according to the method reported by Wang et al.. C. albicans ATCC 90028, C. albicans D27 (FLC-susceptible) and C. albicans D15.9 (FLC-resistant) strains were used as test organisms. Fluconazole was used as a positive control. Freshly prepared sterile YEPD medium was inoculated by fresh culture (approx. 2×10^3 cells) of test organisms in different conical flasks. The cells were exposed to the test compounds at 2MIC, MIC and MIC/2 values, separately. All the conical flasks having different sets of test compounds and concentrations were incubated at 37°C and 160 rpm. At predetermined time points (0, 4, 12, 24, and 48 h after incubation with agitation at 37°C), a 100-μL aliquot was removed from every solution and appropriately diluted in sterile water. A 100-μl aliquot from each dilution was spread over the YEPD agar plate. Colony counts were determined after incubation at 37°C for 24 h. All the time-kill curve experiments were conducted in duplicate and mean colony count data (log10 CFU/mL) were plotted as a function of time for each strain.

A further assay relates to phospholipase secretion. Briefly: Phospholipase assay (egg yolk agar, Pz value). Type of assay: cell-based, C. albicans ATCC 90028. How it is done: Phospholipase activity was performed using the method of Price et al. (1982) with minor modifications. The cells were incubated at 37°C for 18 h and then centrifuged at 3000 rpm for 5 min. The pellet obtained was washed with PBS twice to remove the residual culture medium. […] Volumes of 1 μL were placed at equidistant points on phospholipase agar media plates (1% peptone; 3% glucose; 5.73% NaCl; 0.055% CaCl2 with 10% (v/v) egg yolk emulsion) and incubated at 37°C for 4 days. The secretion of phospholipases was determined by the formation of opaque zones due to precipitation around the yeast colonies. The assay was conducted in duplicate. Pz values were calculated as follows: Pzvalue=diameterofcolony/diameterofcolony+diameterofzoneofprecipitaion

For assay [2], the system named is C. albicans ATCC 90028, C. albicans D27 and C. albicans D15.9. Briefly: Growth assay (growth curve), all three strains. It counts as cell-based. The method, then: The C. albicans cells were freshly revived by subculture on the SD agar plate. A loopful of inoculum was introduced into the SD broth and cells were grown for 16 h at 37°C before use. Approximately 2×10^3 cells/mL were then inoculated into the freshly prepared 50 mL sterile SD medium. […] At predetermined time periods (0, 2, 4, 6, 8, 10, 12, 14, 16, 18, 20 22, and 24 after incubation with agitation at 37°C), 1 mL aliquot of each sample was removed from the conical flask and growth was measured tubidometrically at 600 nm using Thermo Multiskan spectrophotometer. Optical density was recorded for each concentration against time (h).

Assay [3] addresses T1, plasma membrane H+ ATPase (Candida albicans, UniProt P28877).
T1 construct: endogenous in cells; host or cells: C. albicans ATCC 90028; clinical isolates C. albicans D27 (FLC-susceptible) and D15.9 (FLC-resistant); mid-log phase whole cells
Briefly: Proton extrusion measurement (H+ efflux). Type of assay: cell-based, C. albicans D27 (FLC-susceptible). How it is done: The proton pumping activity of C. albicans was determined by monitoring acidification of external medium by measuring pH as describe earlier. In brief, the mid-log phase cells were harvested from SD medium by centrifugation at 3000 rpm for 15 min which is followed by three washings with phosphate buffer saline (PBS). A solution containing 0.1 M KCl and 0.1 mM CaCl2 in distilled water was prepared. Compounds 3a and 3b at the concentrations of 50 and 100 μg/mL were separately added in this solution. […] Initial pH was adjusted to 7.0 using 0.01 M HCl/NaOH. Approximately 0.2 g of cells were suspended in each set of solution. Suspension was kept in a double-jacketed glass container with constant stirring. Again, the pH of suspension was maintained as 7.0 for 1 min by using 0.01 N NaOH. The rate of H^+ extrusion was then monitored and calculated from the volume of 0.01 N NaOH consumed per min per mg weight of cells. Glucose has been reported as the stimulator of proton extrusion pump. Therefore above experiment was also repeated in the presence of 5 mM of glucose.

For a further assay, the system named is C. albicans ATCC 90028. Put plainly: Transmission electron microscopic analysis of morphology. It counts as cell-based. As to conditions: MIC, 1 h exposure. How it is done:
The morphology of C. albicans ATCC 90028 was analyzed using TEM following the standard protocol. […] Cells were then washed thrice with phosphate buffer solution to remove the residual medium and fixed overnight in 2.5% glutaraldehyde in phosphate/magnesium buffer (40 mM K2HPO4/KH2PO4, pH 6.5–0.5 mM MgCl2). Cells were washed twice for 15 min in 0.1 M sodium phosphate buffer (pH 6.0) and post-fixed for 2 h in 2% osmium tetroxide. Cells were again washed twice for 15 min in distilled water and then en bloc stained with 1% uranyl acetate (aqueous) for 30 min. After two further washes, cells were dehydrated in 95% and 100% ethanol. Cells were then exposed to propylene oxide for 2×10 min and infiltrated for 1 h in 1:1 propylene/epoxy embedding material (Epon) mixture and then overnight in fresh Epon. After polymerization for 48 h at 60°C, ultrathin sections were cut using a microtome (LeicaEM UC6) and transferred to a copper grid. Samples were stained with uranyl acetate (saturated solution of uranyl acetate in 50% alcohol) followed by lead citrate. Samples were washed three times in Milli-Q (MQ) water and dried by touching Whatman filter paper. Sections were examined with a FEI Tecnai G^2 TF20 transmission electron microscope at 200 KV.

Where [4] appears, read: 50 μg/mL in presence of glucose (5 mM).
Where [5] appears, read: 100 μg/mL in presence of glucose (5 mM).
Where [6] appears, read: in the presence of glucose (5 mM), 100 μg/mL, read-out: Inhibition of H+ extrusion rate.
Where [7] appears, read: read-out: Inhibition of H+ extrusion.

T1 sequence (P28877 whole entry): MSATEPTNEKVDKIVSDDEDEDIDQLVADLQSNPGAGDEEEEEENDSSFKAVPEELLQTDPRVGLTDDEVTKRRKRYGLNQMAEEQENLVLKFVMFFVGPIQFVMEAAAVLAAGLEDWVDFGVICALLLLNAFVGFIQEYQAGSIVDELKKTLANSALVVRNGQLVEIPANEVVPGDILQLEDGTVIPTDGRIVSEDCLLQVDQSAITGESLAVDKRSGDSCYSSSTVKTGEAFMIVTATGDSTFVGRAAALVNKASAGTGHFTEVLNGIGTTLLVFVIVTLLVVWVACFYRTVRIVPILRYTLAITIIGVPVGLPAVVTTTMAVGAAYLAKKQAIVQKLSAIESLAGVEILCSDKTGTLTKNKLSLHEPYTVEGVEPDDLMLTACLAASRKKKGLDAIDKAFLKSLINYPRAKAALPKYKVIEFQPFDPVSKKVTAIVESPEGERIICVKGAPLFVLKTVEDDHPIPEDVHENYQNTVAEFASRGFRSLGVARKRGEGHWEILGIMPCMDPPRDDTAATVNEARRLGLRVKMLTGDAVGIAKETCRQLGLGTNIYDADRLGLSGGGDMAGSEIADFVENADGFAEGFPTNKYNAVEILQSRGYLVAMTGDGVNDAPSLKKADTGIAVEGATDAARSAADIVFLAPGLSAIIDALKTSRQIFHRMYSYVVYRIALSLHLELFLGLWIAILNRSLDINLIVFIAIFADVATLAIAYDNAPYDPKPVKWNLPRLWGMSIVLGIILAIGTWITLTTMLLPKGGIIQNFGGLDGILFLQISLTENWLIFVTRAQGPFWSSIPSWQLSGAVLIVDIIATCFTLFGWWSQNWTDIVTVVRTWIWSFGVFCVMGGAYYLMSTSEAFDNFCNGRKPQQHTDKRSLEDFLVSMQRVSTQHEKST

Regarding `Clc1ccc(OCc2cn(Cc3ccccc3)nn2)c2ncccc12` [Compound 3b, 8-((1-Benzyl-1H-1,2,3-triazol-4-yl)methoxy)-5-chloroquinoline], the “Decrease of proteinase secretion” value with proteinase secretion came out at 14%. In assay [1] (dose dependent), the “Change in CFU/mL with time interval” value is on record as “only slight increase in CFU/mL”. Moreover, the “Fungicidal or fungistatic nature” value in assay [1] is reported as “fungistatic”. The “Phospholipase activity after treatment” value in the assay on phospholipase secretion (Fig 4 legend) is on record as “No phospholipase activity”. For the same molecule, the “Decrease of phospholipase secretion” value in the assay on phospholipase secretion (at MIC, 1 h exposure) was 68%; in the assay with phospholipase secretion (at MIC/4, 1 h exposure), 32%. In addition, the Growth inhibition entry in assay [2] (at 2MIC and MIC) is on record as “significant growth inhibition”. Also, the “Range of relative H+ efflux rate” value in assay [3] (setting [4]) was 22.30 ± 1.1 ×10^−6 mol min^−1 mg cells^−1; in assay [3] (50 μg/mL, no glucose), 17.60 ± 0.8 ×10^−6 mol min^−1 mg cells^−1; in assay [3] (setting [5]) it was 19.30 ± 0.9 ×10^−6 mol min^−1 mg cells^−1; in assay [3] (100 μg/mL, no glucose), 16.00 ± 0.8 ×10^−6 mol min^−1 mg cells^−1. Further, the inhibition at 100 µg/mL in assay [3] (setting [6]) was determined as 52%; in assay [3] (setting [7]), 65%. In addition, the “Cell morphology by TEM” value with C. albicans ATCC 90028 is listed as “several deformations”.

On to `c1ccc(Cn2cc(COc3cccc4cccnc34)nn2)cc1` [Compound 3a], for which the “Decrease of proteinase secretion” value in the assay on proteinase secretion came to 21%. Also, the “Change in CFU/mL” value in assay [1] (2MIC, after 48 h, all three test strains) is listed as “significant decrease in CFU/mL”. Also, in assay [1], the “Fungicidal or fungistatic nature” value is “fungicidal”. The “Decrease of phospholipase secretion” value in the assay on phospholipase secretion (at MIC, 1 h exposure) is listed as 43%; with phospholipase secretion (at MIC/4, 1 h exposure), 40%. Besides, the “Lag phase (no growth)” value in assay [2] (2MIC, MIC and MIC/2, all three strains) was “more than 24 h”. Besides, the “Range of relative H+ efflux rate” value in assay [3] (setting [4]) was 21.60 ± 1.0 ×10^−6 mol min^−1 mg cells^−1; in assay [3] (50 μg/mL, no glucose) it was 20.00 ± 1.0 ×10^−6 mol min^−1 mg cells^−1; in assay [3] (setting [5]) it was 19.30 ± 0.9 ×10^−6 mol min^−1 mg cells^−1; in assay [3] (100 μg/mL, no glucose), 16.60 ± 0.8 ×10^−6 mol min^−1 mg cells^−1. Further, the inhibition at 100 µg/mL was 52% in assay [3] (setting [6]) and 45% in assay [3] (setting [7]). Besides, the “Cell morphology by TEM” value in the assay with C. albicans ATCC 90028 was “several deformations”.

What is called inhibition is the change of the read-out against control, counted positive when it falls.
